Values of other authors as cited in paper PMC11949389 (Polish Journal of Microbiology, 2025).
≈ marks a conversion by molar mass, not a printed value. Where two headings read alike, the source gives them in different places.

How the values were obtained:
Candida tropicalis = conditions: with voriconazole, C. tropicalis isolates; ref Sharifzadeh and Shokri (2021)
Enterococcus sp. = conditions: ref Caballero Gómez et al. 2022
Pseudomonas sp. = conditions: ref Caballero Gómez et al. 2022
[1] = tested on: carbapenem-resistant Klebsiella pneumoniae (CRKP) strains; conditions: CRKP; ref Qian et al. 2020
[2] = tested on: Singapore grouper iridovirus (SGIV); conditions: ref Wang et al. (2024)
Vibrio harveyi = conditions: ref Rossi et al. 2021
[3] = tested on: Methicillin-resistant Staphylococcus aureus; conditions: for Mechanisms of action: Methicillin-resistant Staphylococcus aureus
Vibrio anguillarum = conditions: ref Rossi et al. 2021
Candida auris [4] = conditions: ref Shaban et al. 2020
Candida auris [5] = conditions: Candida auris; ref Shaban et al. 2020
[6] = tested on: Mupirocin-susceptible Staphylococcus aureus; conditions: ref Kwiatkowski et al. 2019
Streptococcus mutans = conditions: ref Jafri et al. (2019)
[7] = tested on: Mupirocin-resistant Staphylococcus aureus; conditions: ref Kwiatkowski et al. 2019
Candida albicans [8] = conditions: ref Shaban et al. 2020
Acinetobacter baumannii [9] = conditions: combined with ciprofloxacin, ref Aleksic Sabo et al. (2021)
Staphylococcus sp. = conditions: ref Caballero Gómez et al. 2022
Candida glabrata = conditions: Candida glabrata; ref Sharifzadeh et al. 2019; Iraji et al. 2020; Biernasiuk et al. 2022; Stringaro et al. 2022
[10] = tested on: Vibrio anguillarum, and Vibrio harveyi; conditions: ref Rossi et al. (2021)
Staphylococcus aureus [11] = tested on: Staphylococcus aureus
[12] = tested on: Carbapenem-resistant Klebsiella pneumoniae (CRKP); conditions: ref Qian et al. 2020
Acinetobacter baumannii [13] = conditions: ref Choudhary et al. 2022
Candida albicans [14] = tested on: Candida albicans
Staphylococcus aureus [15] = tested on: Staphylococcus aureus; remark: listed apart in the source

## C=CCc1ccc(O)c(OC)c1 [Eugenol]
Candida tropicalis
  FICI: 0.25–0.88
Enterococcus sp.
  MIC/Sensitivity: 200 to 450 µg/mL
Pseudomonas sp.
  MIC/Sensitivity: 300 to 400 µg/mL
[1]
  MIC: 200 µg/mL (≈ 1.22 mM)
[2]
  optimal concentration for inhibiting infection: 100 µM
Vibrio harveyi
  MIC/Sensitivity: 308696 µg/mL (≈ 1880 mM)
[3]; MIC or 2 × MIC concentrations, established MRSA biofilms, ref El-Far et al. (2021)
  biofilm eradication: effectively eradicated established MRSA biofilms
[3]; ref Buru et al. 2022
  Mechanisms of action: • Downregulation of luxS gene • Inhibition of biofilm production • Enhancement of secondary metabolites • Upregulation of argC protein
[3]; ref El-Far et al. 2021
  Mechanisms of action: • Downregulation of biofilm-related genes (sarA, icaA, icaD) • Reduction of polysaccharide accumulation and cell adhesion
Candida krusei; Candida krusei, ref Sharifzadeh et al. 2019, Iraji et al. 2020, Biernasiuk et al. 2022, Stringaro et al. 2022
  MIC/Sensitivity: 250 to 1000 µg/mL
Candida krusei; with voriconazole, C. krusei isolates, ref Sharifzadeh and Shokri (2021)
  FICI: 0.19–0.63
Vibrio anguillarum
  MIC/Sensitivity: 308696 µg/mL (≈ 1880 mM)
Candida auris [4]
  Mechanisms of action: • Reduced proteinase production and host cell adherence
Candida auris [5]
  MIC/Sensitivity: 625 µg/mL (≈ 3.81 mM)
[6]
  MIC/Sensitivity: 2080 µg/mL (≈ 12.7 mM)
Streptococcus mutans
  planktonic MIC: 200 µg/mL
[7]
  MIC/Sensitivity: 8340 µg/mL (≈ 50.8 mM)
Candida albicans [8]
  Mechanisms of action: • Reduced proteinase production
Acinetobacter baumannii [9]
  FICI: 0.25–0.32
Staphylococcus sp.
  MIC/Sensitivity: 300 to 400 µg/mL
Candida glabrata
  MIC/Sensitivity: 1000 to 2000 µg/mL
[10]
  MIC: 940 to 7500 µM
Staphylococcus aureus [11]; ref Macêdo et al. 2022
  Mechanisms of action: • Inhibition of efflux pump
Staphylococcus aureus [11]; ref Mastoor et al. 2022
  Mechanisms of action: • Gene expression reduction linked to intracellular adhesion
Staphylococcus aureus [11]; ref Muniz et al. 2021
  Mechanisms of action: • Inhibition of norA efflux pump
[12]
  Mechanisms of action: • Disruption of cell membrane • Reduction in intracellular pH and ATP levels • Cell membrane hyperpolarization • Downregulation of biofilm-related genes (pgaA, luxS, wbbM, wzm) • Upregulation of mrkA gene
Acinetobacter baumannii [13]
  Mechanisms of action: • Reduction in exopolysaccharide production • Disruption and inhibition of biofilm • Downregulation of csuE gene
Candida albicans [14]; C. albicans, ref Jafri et al. (2019)
  planktonic MIC: 200 µg/mL
Candida albicans [14]; Candida albicans, ref Sharifzadeh et al. 2019, Iraji et al. 2020, Shaban et al. 2020, Stringaro et al. 2022, Biernasiuk et al. 2022
  MIC/Sensitivity: 500 to 2000 µg/mL
Staphylococcus aureus [15]; S. aureus, ref Sharma et al. (2023)
  MIC: 500–1,000 μg/ml
Staphylococcus aureus [15]; Staphylococcus aureus, ref Kwiatkowski et al. 2020, Sayout et al. 2020, Sousa Silveira et al. 2020, Macêdo et al. 2022, Noumi et al. 2023, Sharma et al. 2023
  MIC/Sensitivity: 24 to 11100 µg/mL
